Source: patent US8410117B2, “Imidazopyrimidine derivatives” (Hoffmann-La Roche Inc., priority 2010, dated 2013)

target: T1, human PDE10A (Homo sapiens, UniProt Q9Y233); experiment: human PDE10A full length Scintillation Proximity Assay (SPA); assay type: biochemical; details: 50 nM cGMP and 50 nM [3H]-cGMP, 20 minutes at room temperature; read-out: PDE10A inhibition IC50
T1 construct: The human PDE10A full length assay; purchased Enzo Life Science, Lausen, Switzerland SE-534
In short: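 Full-length enzyme at 3.75 ng/well in 20 mM HEPES pH 7.5, 10 mM MgCl2, 0.05 mg/ml BSA, with 50 nM cGMP plus 50 nM [3H]-cGMP substrate, 20 min at room temperature. Stopped with YSi-SPA beads in zinc sulphate and counted by scintillation. IC50 from inhibitor concentration series; no-enzyme wells define background.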

T1 sequence (Q9Y233 1-779 isoform Q9Y233-1): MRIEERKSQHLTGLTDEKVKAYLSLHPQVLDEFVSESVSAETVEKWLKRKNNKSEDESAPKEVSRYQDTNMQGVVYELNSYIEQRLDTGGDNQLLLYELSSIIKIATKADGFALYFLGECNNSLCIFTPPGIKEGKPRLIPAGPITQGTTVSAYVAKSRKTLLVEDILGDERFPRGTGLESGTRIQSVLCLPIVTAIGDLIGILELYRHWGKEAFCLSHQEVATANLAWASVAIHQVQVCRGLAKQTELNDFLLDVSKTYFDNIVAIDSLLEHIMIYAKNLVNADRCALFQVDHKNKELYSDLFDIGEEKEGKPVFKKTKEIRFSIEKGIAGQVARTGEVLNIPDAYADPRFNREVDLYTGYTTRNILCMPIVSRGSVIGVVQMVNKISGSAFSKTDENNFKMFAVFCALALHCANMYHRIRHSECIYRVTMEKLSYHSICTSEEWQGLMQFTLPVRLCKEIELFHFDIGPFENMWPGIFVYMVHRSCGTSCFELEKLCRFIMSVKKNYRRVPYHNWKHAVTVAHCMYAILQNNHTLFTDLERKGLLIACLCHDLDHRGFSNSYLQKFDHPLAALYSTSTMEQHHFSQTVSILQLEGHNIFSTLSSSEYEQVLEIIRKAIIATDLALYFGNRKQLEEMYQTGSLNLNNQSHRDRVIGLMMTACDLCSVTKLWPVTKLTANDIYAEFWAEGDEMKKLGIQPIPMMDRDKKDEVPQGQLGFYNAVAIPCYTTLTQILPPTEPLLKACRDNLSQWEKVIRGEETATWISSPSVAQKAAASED

Compared with CC(NC(=O)c1cnn(C)c1C(=O)Nc1ccn2cc(-c3ccccc3)nc2n1)c1cccnc1 (stereo not drawn) [Example 139, 1-methyl-N5-(2-phenylimidazo[1,2-a]pyrimidin-7-yl)-N4-(1-(pyridin-3-yl)ethyl)-1H-pyrazole-4,5-dicarboxamide], Cn1ncc(C(=O)NCc2ccncc2)c1C(=O)Nc1ccn2cc(-c3ccccc3)nc2n1 [Example 148, 1-methyl-N5-(2-phenylimidazo[1,2-a]pyrimidin-7-yl)-N4-(pyridin-4-ylmethyl)-1H-pyrazole-4,5-dicarboxamide] is 1.6-fold higher in IC50: 148 nM for the first, 244 nM for the second. The first is the more potent here.

First: Cc1nn(C)c(CNC(=O)c2cnn(C)c2C(=O)Nc2ccn3cc(-c4ccccc4)nc3n2)c1[N+](=O)[O-] [Example 140, N4-((1,3-dimethyl-4-nitro-1H-pyrazol-5-yl)methyl)-1-methyl-N5-(2-phenylimidazo[1,2-a]pyrimidin-7-yl)-1H-pyrazole-4,5-dicarboxamide]
Second: Cn1cc(Cl)c(CNC(=O)c2cnn(C)c2C(=O)Nc2ccn3cc(-c4ccccc4)nc3n2)n1 [Example 158, N4-((4-chloro-1-methyl-1H-pyrazol-3-yl)methyl)-1-methyl-N5-(2-phenylimidazo[1,2-a]pyrimidin-7-yl)-1H-pyrazole-4,5-dicarboxamide]
The IC50 of the first is 2.8-fold lower: 151 nM for the first, 427 nM for the second.

Going from O=C(Nc1ccn2cc(-c3ccccc3)nc2n1)c1nn[nH]c1C(=O)NC1COC1 [Example 141, N5-(oxetan-3-yl)-N4-(2-phenylimidazo[1,2-a]pyrimidin-7-yl)-1H-1,2,3-triazole-4,5-dicarboxamide] to O=C(Nc1ccn2cc(-c3ccccc3)nc2n1)c1nn[nH]c1C(=O)NC1CC1 [Example 159, N5-cyclopropyl-N4-(2-phenylimidazo[1,2-a]pyrimidin-7-yl)-1H-1,2,3-triazole-4,5-dicarboxamide], the IC50 rises from 151 nM to 451 nM (3-fold). The first is the more potent here.

Compared with Cn1ncc(C(=O)NCc2ccc(C#N)nc2)c1C(=O)Nc1ccn2cc(-c3ccccc3)nc2n1 [Example 142, N4-((6-cyanopyridin-3-yl)methyl)-1-methyl-N5-(2-phenylimidazo[1,2-a]pyrimidin-7-yl)-1H-pyrazole-4,5-dicarboxamide], Cn1ncc(C(=O)NCc2ccc(Cl)nc2)c1C(=O)Nc1ccn2cc(-c3ccccc3)nc2n1 [Example 154, N4-((6-chloropyridin-3-yl)methyl)-1-methyl-N5-(2-phenylimidazo[1,2-a]pyrimidin-7-yl)-1H-pyrazole-4,5-dicarboxamide] is 2.1-fold higher in IC50: 152 nM for the first, 315 nM for the second. The first is the more potent here.

Going from Cc1cc(CNC(=O)c2cnn(C)c2C(=O)Nc2ccn3cc(-c4ccccc4)nc3n2)no1 [Example 143, 1-methyl-N-4-((5-methylisoxazol-3-yl)methyl)-N5-(2-phenylimidazo[1,2-a]pyrimidin-7-yl)-1H-pyrazole-4,5-dicarboxamide] to CCc1cc(CNC(=O)c2cnn(C)c2C(=O)Nc2ccn3cc(-c4ccccc4)nc3n2)on1 [Example 160, N4-((3-ethylisoxazol-5-yl)methyl)-1-methyl-N5-(2-phenylimidazo[1,2-a]pyrimidin-7-yl)-1H-pyrazole-4,5-dicarboxamide], the IC50 rises from 162 nM to 459 nM (2.8-fold). The first is the more potent here.

Going from Cn1ncc(C(=O)NCc2ccc(C(F)(F)F)nc2)c1C(=O)Nc1ccn2cc(-c3ccccc3)nc2n1 [Example 144, 1-methyl-N5-(2-phenylimidazo[1,2-a]pyrimidin-7-yl)-N-4-((6-(trifluoromethyl)pyridin-3-yl)methyl)-1H-pyrazole-4,5-dicarboxamide] to Cc1ccc(CNC(=O)c2cnn(C)c2C(=O)Nc2ccn3cc(-c4ccccc4)nc3n2)nc1 [Example 155, 1-methyl-N4-((5-methylpyridin-2-yl)methyl)-N5-(2-phenylimidazo[1,2-a]pyrimidin-7-yl)-1H-pyrazole-4,5-dicarboxamide], the IC50 rises from 198 nM to 346 nM (1.7-fold).

Cn1ncc(C(=O)NC2(C#N)CC2)c1C(=O)Nc1ccn2cc(-c3ccccc3)nc2n1 [Example 145, N4-(1-cyanocyclopropyl)-1-methyl-N5-(2-phenylimidazo[1,2-a]pyrimidin-7-yl)-1H-pyrazole-4,5-dicarboxamide] and Cn1ncc(C(=O)NCc2nc(C#N)cs2)c1C(=O)Nc1ccn2cc(-c3ccccc3)nc2n1 [Example 151, N4-((4-cyanothiazol-2-yl)methyl)-1-methyl-N5-(2-phenylimidazo[1,2-a]pyrimidin-7-yl)-1H-pyrazole-4,5-dicarboxamide] are within 1.5-fold of each other in IC50: 210 nM for the first, 288 nM for the second.

Compared with Cn1ncc(C(=O)NCc2ccon2)c1C(=O)Nc1ccn2cc(-c3ccccc3)nc2n1 [Example 146, N4-(isoxazol-3-ylmethyl)-1-methyl-N5-(2-phenylimidazo[1,2-a]pyrimidin-7-yl)-1H-pyrazole-4,5-dicarboxamide], Cn1ccc(CNC(=O)c2cnn(C)c2C(=O)Nc2ccn3cc(-c4ccccc4)nc3n2)n1 [Example 157, 1-methyl-N-4-((1-methyl-1H-pyrazol-3-yl)methyl)-N5-(2-phenylimidazo[1,2-a]pyrimidin-7-yl)-1H-pyrazole-4,5-dicarboxamide] is 1.8-fold higher in IC50: 212 nM for the first, 389 nM for the second. The first is the more potent here.

Cn1ncc(C(=O)NCc2nnn[nH]2)c1C(=O)Nc1ccn2cc(-c3ccccc3)nc2n1 [Example 147, N4-((1H-tetrazol-5-yl)methyl)-1-methyl-N5-(2-phenylimidazo[1,2-a]pyrimidin-7-yl)-1H-pyrazole-4,5-dicarboxamide] and Cn1ncc(C(=O)NCc2cc(C3CC3)[nH]n2)c1C(=O)Nc1ccn2cc(-c3ccccc3)nc2n1 [Example 152, N4-((5-cyclopropyl-1H-pyrazol-3-yl)methyl)-1-methyl-N5-(2-phenylimidazo[1,2-a]pyrimidin-7-yl)-1H-pyrazole-4,5-dicarboxamide] are within 1.5-fold of each other in IC50: 235 nM for the first, 302 nM for the second.

Cn1ncc(C(=O)NCc2cn3ccccc3n2)c1C(=O)Nc1ccn2cc(-c3ccccc3)nc2n1 [Example 149, N4-(imidazo[1,2-a]pyridin-2-ylmethyl)-1-methyl-N5-(2-phenylimidazo[1,2-a]pyrimidin-7-yl)-1H-pyrazole-4,5-dicarboxamide] and Cn1ncc(C(=O)NCc2cn3ccsc3n2)c1C(=O)Nc1ccn2cc(-c3ccccc3)nc2n1 [Example 153, N4-(imidazo[2,1-b]thiazol-6-ylmethyl)-1-methyl-N5-(2-phenylimidazo[1,2-a]pyrimidin-7-yl)-1H-pyrazole-4,5-dicarboxamide] are within 1.5-fold of each other in IC50: 260 nM for the first, 305 nM for the second.

COCCNC(=O)c1[nH]nnc1C(=O)Nc1ccn2cc(-c3ccccc3)nc2n1 [Example 150, N5-(2-methoxyethyl)-N4-(2-phenylimidazo[1,2-a]pyrimidin-7-yl)-1H-1,2,3-triazole-4,5-dicarboxamide] and CCCNC(=O)c1[nH]nnc1C(=O)Nc1ccn2cc(-c3ccccc3)nc2n1 [Example 156, N4-(2-phenylimidazo[1,2-a]pyrimidin-7-yl)-N5-propyl-1H-1,2,3-triazole-4,5-dicarboxamide] are within 1.5-fold of each other in IC50: 263 nM for the first, 359 nM for the second.

COc1ncccc1CNC(=O)c1cnn(C)c1C(=O)Nc1ccn2cc(-c3ccccc3)nc2n1 [Example 161, N4-((2-methoxypyridin-3-yl)methyl)-1-methyl-N5-(2-phenylimidazo[1,2-a]pyrimidin-7-yl)-1H-pyrazole-4,5-dicarboxamide] and Cn1ncc(C(=O)NCc2ccccc2)c1C(=O)Nc1ccn2cc(-c3ccccc3)nc2n1 [Example 162, N4-benzyl-1-methyl-N5-(2-phenylimidazo[1,2-a]pyrimidin-7-yl)-1H-pyrazole-4,5-dicarboxamide] are within 1.5-fold of each other in IC50: 547 nM for the first, 624 nM for the second.
